Experimental data taken from patent US20220041627A1, “PRODRUGS OF ANTI-CANCER AND ANTI-AUTOIMMUNE DISEASES THERAPEUTIC AGENTS, AND METHODS OF MAKING AND USE THEREOF” (UNIVERSITY OF MARYLAND, BALTIMORE, priority 2018, published 2022).

Key:
[1] = tested on: UACC-62; assay: NCI-60 growth inhibition, UACC-62; assay type: cell-based, human
Source text: (§1) The anticancer effects of compounds 1a-1b against 60 human cancer cell lines (the Developmental Therapeutics Program of NCI) were studied. The cell lines were derived from different cancer types including leukemia, non-small-cell lung cancer, colon cancer, CNS cancer, melanoma, ovarian cancer, renal cancer, prostate cancer, and breast cancer (Table 1; the assay protocol can be found at: https://dtp.cancer.gov/default.htm). Compound 1a caused over 50% growth inhibition for most tested cell lines. […] Without wishing to be bound by any particular theory, it is believed that the differences in the anticancer effects between compounds 1a and 1b may be due to the more favorable cell membrane permeability of the boronic ester 1a.

[2] = tested on: M14; assay: NCI-60 growth inhibition, M14; assay type: cell-based, human
Source text: as §1

[3] = tested on: 786-0; assay: NCI-60 growth inhibition, 786-0; assay type: cell-based, human
Source text: as §1

[4] = tested on: OVCAR-8; assay: NCI-60 growth inhibition, OVCAR-8; assay type: cell-based, human
Source text: as §1

[5] = tested on: HOP-62; assay: NCI-60 growth inhibition, HOP-62; assay type: cell-based, human
Source text: as §1

[6] = tested on: breast cancer MCF7 cells; assay: Cell viability (CCK8) in breast cancer MCF7 cells; assay type: cell-based, human; conditions: different concentrations, compared with parent drug 5-FU
Protocol: FIGS. 2A and 2B illustrate the anticancer effects and selectivity of 5-FU and compounds 1a-1c. Cell viability was analyzed after the breast cancer MCF7 cells (FIG. 2A) and normal MEC1 cells (FIG. 2B) were treated with 5-FU or compounds 1a-1c at different concentrations. Data are presented as mean±SD, n=4.
Cell Counting Kit-8 (CCK8, Dojingo) was used to carry out the cytotoxicity assessment of the prodrugs. Seeded cells were treated with varying compound concentrations for 48-72 h and the CCK8 kit was used to measure the cytotoxicity. For NAC experiments, this ROS scavenger was pre-incubated with the cells for 2 h and then co-incubated with the prodrugs for additional 48 hours unless otherwise noted.
The anticancer effects of new compounds 1a and 1b were tested using the breast cancer MCF7 cells and normal MEC1 cells (FIGS. 2A and 2B). […] These differential killing results highlight the specificity of new prodrugs 1a-1b for cancer cells over normal cells. […] To further verify the role of ROS in the drug release process, the MTT assays was performed, using MCF7 cells pretreated with the ROS scavenger N-Acetyl-Cysteine (NAC).

[7] = tested on: NCI-H460; assay: NCI-60 growth inhibition, NCI-H460; assay type: cell-based, human
Source text: as §1

[8] = tested on: NCI-H322M; assay: NCI-60 growth inhibition, NCI-H322M; assay type: cell-based, human; conditions: Non-Small Cell lung Cancer NCI-H322M, 48 h
Source text: as §1

[9] = tested on: PC-3; assay: NCI-60 growth inhibition, PC-3; assay type: cell-based, human
Source text: as §1

[10] = tested on: HL-60(TB); assay: NCI-60 growth inhibition, HL-60(TB); assay type: cell-based, human; conditions: Leukemia HL-60(TB), 48 h
Source text: as §1

[11] = tested on: SF-268; assay: NCI-60 growth inhibition, SF-268; assay type: cell-based, human
Source text: as §1

[12] = tested on: NCI-H23; assay: NCI-60 growth inhibition, NCI-H23; assay type: cell-based, human
Source text: as §1

[13] = tested on: HCT-116; assay: NCI-60 growth inhibition, HCT-116; assay type: cell-based, human
Source text: as §1

[14] = tested on: MDA-MB-435; assay: NCI-60 growth inhibition, MDA-MB-435; assay type: cell-based, human
Source text: as §1

[15] = tested on: OVCAR-5; assay: NCI-60 growth inhibition, OVCAR-5; assay type: cell-based, human
Source text: as §1

[16] = tested on: MDA-MB-468; assay: NCI-60 growth inhibition, MDA-MB-468; assay type: cell-based, human
Source text: as §1

[17] = tested on: SW-620; assay: NCI-60 growth inhibition, SW-620; assay type: cell-based, human
Source text: as §1

[18] = tested on: UO-31; assay: NCI-60 growth inhibition, UO-31; assay type: cell-based, human
Source text: as §1

[19] = tested on: UACC-257; assay: NCI-60 growth inhibition, UACC-257; assay type: cell-based, human
Source text: as §1

[20] = tested on: SK-MEL-2; assay: NCI-60 growth inhibition, SK-MEL-2; assay type: cell-based, human
Source text: as §1

[21] = 5-FU release study with H2O2 (LC/MS); assay type: physicochemical; conditions: for activation by H2O2 to release 5-FU: prodrug 100 μM, H2O2 5 equiv, 30% DMSO in PBS, 37° C., RP-UPLC-MS
Protocol: FIGS. 1A and 1B illustrate the release of 5-FU from compounds 1a-1b. Incubation of prodrugs 1a-1b (100 μM) was carried out in the presence of 5 equivalent of H2O2: (FIG. 1A) compound 1a and (FIG. 1B) compound 1b. The conversion of prodrugs 1a-1b and release of 5-FU was monitored. The data represent mean±SD of triplicates.
Release of 5-FU from the prodrugs was performed at 37° C. in 30% DMSO/Phosphate Buffered saline (PBS). The compounds were co-incubated at 100 μM together with hydrogen peroxide (H2O2) in triplicates. At each time point, aliquots were taken from the solution and diluted in acetonitrile for quantitation in the LC/MS. LC/MS Analysis: samples were analyzed using Xevo TQ-XS Triple Quadrupole Mass Spectrometry (Waters Corp, Milford, Mass.). The column used was a Cortecs C18+2.7 μm 2.1×75 mm column. A 3-min gradient elution with 0.5 mL/min flow rate was used for the samples. Running gradient: 95% mobile phase A over 1.2 min, 95% mobile phase B over 1.2 min, and 95% A 0.6 min, with elution at 1.64 min for the compounds. The ion transitions monitored for the compounds were 5-FU (129.0>40.1) 1a (345.2>86.0), and 1b (263.1>176.1).
Compounds 1a-1b were incubated in a mixture of DMSO in PBS (30%) with the addition of H2O2 (5 equiv) at 37° C. The conversion of prodrugs 1a-1b and the production of 5-FU were followed using RP-UPLC-MS.

Compound `CC1(C)OB(c2ccc(Cn3cc(F)c(=O)[nH]c3=O)cc2)OC1(C)C` [Compound 1a, 5-Fluoro-1-(4-(4,4,5,5-tetramethyl-1,3,2-dioxaborolan-2-yl)benzyl)pyrimidine-2,4(1H,3H)-dione] has an inhibition at 50 µM ([1]; Homo sapiens, Melanoma UACC-62, 48 h) of 71%, an inhibition at 50 µM ([2]; Homo sapiens, Melanoma M14, 48 h) of 55% and an inhibition at 50 µM ([3]; Homo sapiens, Renal Cancer 786-0, 48 h) of 19%. The inhibition at 50 µM ([4]; Homo sapiens, Ovarian Cancer OVCAR-8, 48 h) was 25%, the inhibition at 50 µM ([5]; Homo sapiens, Non-Small Cell lung Cancer HOP-62, 48 h) was 36% and the “antiproliferative activity / anticancer effects” value [6] was “comparable antiproliferative activity as that of the parent drug 5-FU”. It also gave an inhibition at 50 µM ([7]; Homo sapiens, Non-Small Cell lung Cancer NCI-H460, 48 h) of 66%, an inhibition at 50 µM ([8]; Homo sapiens) of 14% and an inhibition at 50 µM ([9]; Homo sapiens, Prostate Cancer PC-3, 48 h) of 45%. For the same compound, the inhibition at 50 µM ([10]; Homo sapiens) was 68%, the inhibition at 50 µM ([11]; Homo sapiens, CNS Cancer SF-268, 48 h) was 31% and the inhibition at 50 µM ([12]; Homo sapiens, Non-Small Cell lung Cancer NCI-H23, 48 h) was 32%. The inhibition at 50 µM ([13]; Homo sapiens, Colon Cancer HCT-116, 48 h) was 71%, the inhibition at 50 µM ([14]; Homo sapiens, Melanoma MDA-MB-435, 48 h) was 96% and the inhibition at 50 µM ([15]; Homo sapiens, Ovarian Cancer OVCAR-5, 48 h) was 30%. The inhibition at 50 µM ([16]; Homo sapiens, Breast Cancer MDA-MB-468, 48 h) was 87%, the inhibition at 50 µM ([17]; Homo sapiens, Colon Cancer SW-620, 48 h) was 66% and the inhibition at 50 µM ([18]; Homo sapiens, Renal Cancer UO-31, 48 h) was 27%. The inhibition at 50 µM ([19]; Homo sapiens, Melanoma UACC-257, 48 h) was 33%, the inhibition at 50 µM ([20]; Homo sapiens, Melanoma SK-MEL-2, 48 h) was 59% and the “activation by H2O2 to release 5-FU” value [21] was “activated efficiently”. The “hydrolysis of boronic ester to boronic acid 1b” value ([21]; under the release assay conditions (30% DMSO in PBS, H2O2 5 equiv, 37° C.)) was “hydrolyzes rapidly”.

In the case of `O=c1[nH]c(=O)n(Cc2ccc(B(O)O)cc2)cc1F` [Compound 1b, (4-((5-Fluoro-2,4-dioxo-3,4-dihydropyrimidin-I(2H)-yl)methyl)phenyl)boronic acid], the “Growth Inhibition (%)” value ([1]; Melanoma UACC-62, 50 μM, 48 h) is reported as 30%, the “Growth Inhibition (%)” value ([2]; Melanoma M14, 50 μM, 48 h) is reported as 17% and the “Growth Inhibition (%)” value ([3]; Renal Cancer 786-0, 50 μM, 48 h) is reported as 6%. The “Growth Inhibition (%)” value ([4]; Ovarian Cancer OVCAR-8, 50 μM, 48 h) was 6%, the “Growth Inhibition (%)” value ([5]; Non-Small Cell lung Cancer HOP-62, 50 μM, 48 h) was 10% and the “Growth Inhibition (%)” value ([7]; Non-Small Cell lung Cancer NCI-H460, 50 μM, 48 h) was 1%. The “Growth Inhibition (%)” value ([8]; 50 μM) was 12%, the “Growth Inhibition (%)” value ([9]; Prostate Cancer PC-3, 50 μM, 48 h) was 14% and the “Growth Inhibition (%)” value ([10]; 50 μM) was 11%. For the same compound, the “Growth Inhibition (%)” value ([11]; CNS Cancer SF-268, 50 μM, 48 h) was 14%, the “Growth Inhibition (%)” value ([12]; Non-Small Cell lung Cancer NCI-H23, 50 μM, 48 h) was 6% and the “Growth Inhibition (%)” value ([13]; Colon Cancer HCT-116, 50 μM, 48 h) was 18%. The “Growth Inhibition (%)” value ([14]; Melanoma MDA-MB-435, 50 μM, 48 h) was 65%, the “Growth Inhibition (%)” value ([15]; Ovarian Cancer OVCAR-5, 50 μM, 48 h) was 19% and the “Growth Inhibition (%)” value ([16]; Breast Cancer MDA-MB-468, 50 μM, 48 h) was 22%. For the same compound, the “Growth Inhibition (%)” value ([17]; Colon Cancer SW-620, 50 μM, 48 h) was 17%, the “Growth Inhibition (%)” value ([18]; Renal Cancer UO-31, 50 μM, 48 h) was 27% and the “Growth Inhibition (%)” value ([19]; Melanoma UACC-257, 50 μM, 48 h) was 14%. The “Growth Inhibition (%)” value ([20]; Melanoma SK-MEL-2, 50 μM, 48 h) was 7% and the “activation by H2O2 to release 5-FU” value [21] was “activated efficiently”.
